Results reported in patent US8597922B2, “Methods and compositions for producing olefins” (LS9, Inc., priority 2007, dated 2013).

Key:
[1] = tested on: ATCC 8456 cell free extract; assay: Conversion of free fatty acids into α-olefins by ATCC 8456 cell free extract; format: biochemical, Jeotgalicoccus sp. ATCC 8456; conditions: for α-olefin formed from the fatty acid by cell free extract: 1 mM free fatty acid salt, room temperature, 3 h
Protocol: A cell free extract of ATCC 8456 was used to convert free fatty acids into α-olefins. The cell free extract was generated using the following procedure: ATCC 8456 cells were grown in TSBYE medium (3% Tryptic Soy Broth+0.5% Yeast Extract) at 30° C. for 24 h with shaking. The cells were then pelleted from the culture by centrifuging at 3,700 rpm for 20 min. The cell pellet was then resuspended in 50 mM Tris buffer pH 7.5 with 0.1 M NaCl and 2.0 mM dithiothreitol to a concentration of 0.1 g/mL cells. To this cell slurry, 200 units/mL of lysostaphin (Sigma) were added on ice. The cell lysis reaction was allowed to proceed for 30 min. The cells were then sonicated at 12 W on ice for three cycles of 1.5 sec of sonication followed by 1.5 sec of rest. Sonication lasted for a total of 9 sec. This procedure was repeated 5 times with a 1 min interval between each sonication cycle. The lysed cells were then centrifuged at 12,000 rpm for 10 min to pellet the cell debris. The supernatant (i.e., cell free extract) was then removed and used for the conversion of free fatty acids to α-olefins.
First, a 5% stock solution of sodium or potassium stearate was made in 1% Tergitol solution (Sigma, St. Louis, Mo.). Next, 6 μL of the stock solution was added to 1 mL of the cell free extract at room temperature to obtain a final concentration of 1 mM free fatty acid salt. The reaction was conducted at room temperature for 3 h. The α-olefins were recovered by adding 200 μL of ethyl acetate to the mixture, vortexing briefly, centrifuging briefly, and then removing the organic phase. The α-olefins were detected using GC/MS.
In sample 1 (TIC1; black line in FIG. 5), no stearic acid was added to the cell free extract. In sample 2 (TIC3; blue line in FIG. 5), the cell free extract was replaced with 50 mM Tris pH 7.5 buffer with 0.1 M sodium chloride to which stearic acid was added. In sample 3 (TICS; red line in FIG. 5), stearic acid was added to the cell free extract. The peak at 7.62 min had the same retention time and the same mass spectra as a 1-heptadecene standard (Sigma). When eicosanoic acid was added under similar conditions, 1-nonadecene was formed.
When the cell free extract was supplemented with several co-factors in 1 mM concentrations, no increase in α-olefin synthesis was observed. The co-factors examined were NAD+, NADP+, NADH, NADPH, FADH2, SAM, ATP, and CoA. In addition, Mg^2+ was examined at a 10 mM concentration. The co-factor requirement was also tested by dialyzing the cell free extract with a 10 kDa cut-off membrane for 1.5 h in a volume 200-fold greater than the cell extract volume using a dialysis buffer: 50 mM Tris, pH 7.5 with 0.1 M sodium chloride. No decrease in α-olefin synthesis was observed after dialysis. Additionally, no decrease in α-olefin synthesis was observed when 10 mM EDTA pH 7.5 was added to the reaction mixture.

[2] = tested on: ORF880; assay: In vitro reaction rates of purified ORF880 with different fatty acid substrates; format: biochemical, Jeotgalicoccus sp. ATCC8456; conditions: 1.0 μM ORF880, 200 μM fatty acid salt, pH 7.2, room temperature, between 20 min and 47 min
Protocol: The genomic DNA encoding Jeotgalicoccus sp. ATCC8456_orf880 was cloned into the NdeI and XhoI sites of vector pET15b (Novagen) under the control of the T7 promoter for expression in and purification from E. coli. This plasmid expressed an N-terminal His-tagged version of 8456_orf880.
An E. coli BL21 strain (DE3) (Invitrogen) was transformed with pET15b-orf880 using routine chemical transformation techniques. Protein expression was carried out by first inoculating a colony of the E. coli strain in 5 mL of LB media supplemented with 100 mg/L of carbenecillin and shaken overnight at 37° C. to produce a starter culture. This starter culture was used to inoculate 1 L of LB media supplemented with 100 mg/L of carbenecillin. The culture was shaken at 37° C. until an OD600 value of 0.6 was reached. The culture was placed on ice for 10 min before IPTG was added to a final concentration of 250 μM. The culture was then shaken at 18° C. for approximately 18 h. The culture was then centrifuged at 3,700 rpm for 20 min at 4° C. The pellet was then resuspended in 30 mL of buffer containing 100 mM sodium phosphate buffer at pH 7.2 supplemented with Bacterial ProteaseArrest (GBiosciences). The cells were then sonicated at 12 W on ice for 9 sec with 1.5 sec of sonication followed by 1.5 sec of rest. This procedure was repeated 5 times with one min intervals between each sonication cycle. The cell free extract was centrifuged at 10,000 rpm for 30 min at 4° C. 5 mL of Ni-NTA (Qiagen) was added to the supernatant and the mixture was gently stirred at 4° C. The slurry was passed over a column removing the resin from the lysate. The resin was then washed with 30 mL of buffer containing 100 mM sodium phosphate buffer at pH 7.2 plus 30 mM imidazole. Finally, the protein was eluted with 15 mL of 100 mM sodium phosphate buffer at pH 7.2 plus 250 mM imidazole. The protein solution was dialyzed with 200 volumes of 100 mM sodium phosphate buffer at pH 7.2. Protein concentration was determined using the Bradford assay (Biorad). 125 μg/mL of protein was obtained.
In order to assay the in vitro fatty acid substrate specificity of ORF880, potassium salts of the following fatty acids were prepared: tetradecanoic acid, hexadecanoic acid, octadecanoic acid, eicosanoic acid, and behenic acid (Sigma). The fatty acid solutions were made with 2% ethanol and 2% Tergitol solution (Sigma, St. Louis, Mo.) to a final concentration of 20 mM.
The kinetics of the decarboxylation reaction was determined using potassium octadecanoate. A 200 μL reaction was prepared with the following reactant concentrations: 1.25 μM of ORF880, 200 μM of potassium octadecanoate, […], and 100 mM sodium phosphate buffer at pH 7.2. […] Samples were analyzed using GC/MS using the alkane-1 splitless method, which is performed using the following parameters: run time: 20 min; column: HP-5-MS Part No. 19091S-433E (length of 30 meters; I.D.: 0.25 mm narrowbore; film: 0.25 μM); sample: standard ethyl acetate extraction; inject: 1 μL Agilent 6850 inlet; inlet: 300° C. splitless; carrier gas: helium; flow: 1.3 mL/min; oven temp: 100° C. hold 5 min, 320 at 20° C./min, 320 hold 5 min; det: Agilent 5975B VL MSD; det. temp: 300° C.; scan: 50-500 M/Z. Calibration curves were generated using 1-heptadecene dissolved in ethyl acetate. Based upon this analysis, the product production was determined to be linear from 5 min to 60 min. […]

[3] = tested on: ATCC 8456 cells; assay: Fatty acid feeding of ATCC 8456 cells, α-olefins analyzed by GC-MS; format: cell-based, Jeotgalicoccus sp. ATCC 8456; conditions: fatty acid fed at 0.5 g/l (0.05%), 40-48 h at 30° C.; for α-olefin whose production increased upon fatty acid feeding: olefins not normally produced by ATCC 8456
Protocol: ATCC 8456 cells were grown in 15 mL TSBYE medium (3% Tryptic Soy Broth+0.5% Yeast Extract). Fatty acids were added to the culture medium at final concentrations of 0.5 g/l (0.05%). After growth for 40-48 h at 30° C., cells from 5 mL of culture were pelleted, resuspended in 1 mL methanol, sonicated for 30 min, and extracted with 4 mL hexane. After solvent evaporation, samples were resuspended in 0.1 mL hexane and analyzed by GC-MS.

## Nc1ncnc2c1ncn2[C@@H]1O[C@H](COP(=O)(O)OP(=O)(O)OP(=O)(O)O)[C@@H](O)[C@H]1O [ATP]
[1]; co-factor at 1 mM
  effect of co-factor supplementation on α-olefin synthesis: no increase

## CC(C)(COP(=O)(O)OP(=O)(O)OC[C@H]1O[C@@H](n2cnc3c(N)ncnc32)[C@H](O)[C@@H]1OP(=O)(O)O)[C@@H](O)C(=O)NCCC(=O)NCCS [CoA]
[1]; co-factor at 1 mM
  effect of co-factor supplementation on α-olefin synthesis: no increase

## O=C(O)CN(CCN(CC(=O)O)CC(=O)O)CC(=O)O [EDTA]
[1]; 10 mM, pH 7.5
  effect on α-olefin synthesis when added to the reaction mixture: no decrease

## Cc1cc2c(cc1C)N(C[C@H](O)[C@H](O)[C@H](O)COP(=O)(O)OP(=O)(O)OC[C@H]1O[C@@H](n3cnc4c(N)ncnc43)[C@H](O)[C@@H]1O)c1[nH]c(=O)[nH]c(=O)c1N2 [FADH2]
[1]; co-factor at 1 mM
  effect of co-factor supplementation on α-olefin synthesis: no increase

## [Mg+2] [Mg^2+]
[1]; 10 mM concentration
  effect of co-factor supplementation on α-olefin synthesis: no increase

## NC(=O)c1ccc[n+]([C@@H]2O[C@H](COP(=O)([O-])OP(=O)(O)OC[C@H]3O[C@@H](n4cnc5c(N)ncnc54)[C@H](O)[C@@H]3O)[C@@H](O)[C@H]2O)c1 [NAD+]
[1]; co-factor at 1 mM
  effect of co-factor supplementation on α-olefin synthesis: no increase

## NC(=O)C1=CN([C@@H]2O[C@H](COP(=O)(O)OP(=O)(O)OC[C@H]3O[C@@H](n4cnc5c(N)ncnc54)[C@H](O)[C@@H]3O)[C@@H](O)[C@H]2O)C=CC1 [NADH]
[1]; co-factor at 1 mM
  effect of co-factor supplementation on α-olefin synthesis: no increase

## NC(=O)c1ccc[n+]([C@@H]2O[C@H](COP(=O)([O-])OP(=O)(O)OC[C@H]3O[C@@H](n4cnc5c(N)ncnc54)[C@H](OP(=O)(O)O)[C@@H]3O)[C@@H](O)[C@H]2O)c1 [NADP+]
[1]; co-factor at 1 mM
  effect of co-factor supplementation on α-olefin synthesis: no increase

## NC(=O)C1=CN([C@@H]2O[C@H](COP(=O)(O)OP(=O)(O)OC[C@H]3O[C@@H](n4cnc5c(N)ncnc54)[C@H](OP(=O)(O)O)[C@@H]3O)[C@@H](O)[C@H]2O)C=CC1 [NADPH]
[1]; co-factor at 1 mM
  effect of co-factor supplementation on α-olefin synthesis: no increase

## C[S+](CC[C@H](N)C(=O)[O-])C[C@H]1O[C@@H](n2cnc3c(N)ncnc32)[C@H](O)[C@@H]1O (some centres unmarked) [SAM]
[1]; co-factor at 1 mM
  effect of co-factor supplementation on α-olefin synthesis: no increase

## CCCCCCCCCCCCCCCCCCCCCC(=O)O [behenic acid]
[2]
  Activity (nM alkene produced/min): 30.6 nM alkene produced/min

## CCCCCCCCCCCCCCCCCCCC(=O)O [eicosanoic acid]
[3]; versus no fatty acid feeding
  increase in 1-nonodecene production: approximately 18 fold
[2]
  Activity (nM alkene produced/min): 19.7 nM alkene produced/min
[1]
  α-olefin formed from the fatty acid by cell free extract: 1-nonadecene

## CCCCCCCCCCCCCCCC(=O)O [hexadecanoic acid]
[3]
  α-olefin whose production increased upon fatty acid feeding: 1-heptadecene
[2]
  Activity (nM alkene produced/min): 181.9 nM alkene produced/min

## CCCCCCCCCCCCCCCCCC(=O)O [octadecanoic acid]
[3]
  α-olefin whose production increased upon fatty acid feeding: 1-pentadecene
[2]
  Activity (nM alkene produced/min): 77.2 nM alkene produced/min
[1]
  α-olefin formed from the fatty acid by cell free extract: 1-heptadecene

## CCCCCCCCCCCCCC(=O)O [tetradecanoic acid]
[2]
  Activity (nM alkene produced/min): 22.9 nM alkene produced/min
